From US5792882A, “Phenoxyphenyl cyclopentenyl hydroxyureas” (Pfizer Inc., priority 1993, dated 1998)

What was measured:
[1] = target: T1, 5-lipoxygenase (LO) (Homo sapiens, UniProt P09917); experiment: In vitro assay using heparinized human whole blood (HWB); assay type: cell-based; details: calcium ionophore stimulated, 10 min preincubation at 37° C., read-out: IC50, inhibition of 5-lipoxygenase metabolism of arachidonic acid
T1 construct: Aliquots of heparinized human whole blood (1 ml) from healthy donors; endogenous in cells; host or cells: heparinized human whole blood from healthy donors
T1 sequence (P09917 1-674): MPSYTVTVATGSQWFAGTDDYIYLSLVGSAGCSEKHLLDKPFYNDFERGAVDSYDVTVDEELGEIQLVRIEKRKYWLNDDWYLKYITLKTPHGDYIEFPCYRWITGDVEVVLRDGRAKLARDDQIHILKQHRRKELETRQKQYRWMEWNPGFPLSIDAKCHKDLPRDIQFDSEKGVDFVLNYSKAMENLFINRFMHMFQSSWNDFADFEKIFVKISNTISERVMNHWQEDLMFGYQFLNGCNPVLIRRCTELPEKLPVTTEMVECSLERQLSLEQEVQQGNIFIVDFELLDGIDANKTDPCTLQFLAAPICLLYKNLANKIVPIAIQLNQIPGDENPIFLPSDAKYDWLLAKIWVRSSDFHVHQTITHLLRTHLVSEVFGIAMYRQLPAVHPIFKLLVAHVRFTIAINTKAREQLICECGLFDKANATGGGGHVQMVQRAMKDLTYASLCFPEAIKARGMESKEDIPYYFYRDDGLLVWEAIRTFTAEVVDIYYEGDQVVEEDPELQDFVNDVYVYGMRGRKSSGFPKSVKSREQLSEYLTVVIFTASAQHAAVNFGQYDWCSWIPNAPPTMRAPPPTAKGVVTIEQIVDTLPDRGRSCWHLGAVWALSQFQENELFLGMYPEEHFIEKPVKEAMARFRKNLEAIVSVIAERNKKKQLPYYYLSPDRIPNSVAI
Procedure: 1) In vitro assay using heparinized human whole blood (HWB)
Aliquots of heparinized human whole blood (1 ml) from healthy donors were preincubated with drugs dissolved in dimethyl sulfoxide (final concentration, 0.1%) for 10 min at 37° C., then calcium ionophore […] (60 μM) and Heparapid (2.5%, Sekisui Chemical Co. LTD., Japan) were added and incubations were continued for further 30 min. Reactions were terminated by rapid cooling in an ice bath. Blood-clots induced by Heparapid were removed by centrifugation. Acetonitrile (ACN, 1.5 ml) and PGB2 (200 ng, as internal standard) were added to supernatants. Samples were mixed by Voltex mixer and precipitated proteins were removed by centrifugation. Supernatants were diluted to 15% ACN with water and were loaded onto prewashed Sep-Pak C18 cartridge (Waters Associates, Milford, Miss., USA) and arachidonate metabolites were eluted with 4 ml of 70% methanol. Methanolic extract was evaporated and the residue was then reconstituted in 250 μl of 67% ACN.
ACN reconstituents (100 μl) were injected onto a reversed phase C18 column (Wakosil SC18, 4.6×150 mm, Wako Pure Chemical Industries LTD, Japan). Column temperature was 40° C. HPLC analysis was performed by Hewlett Packard model 1090M HPLC system. The chromatographic was achieved by gradient elution using two different mobile phase ( mobile phase A consisted of 10% ACN, 0.1% trifluoroacetic acid and 0.05% triethylamine; mobile phase B consisted of 80% ACN, 0.1% trifluoroacetic acid and 0.05% triethylamine). Each mobile phase was continuously sparged with helium. The HPLC gradient was programmed as follows (where A+B=100): from 0 to 9.7 min, a linear gradient from 35 to 100% of […] with flow rate of 1 ml/min. Peaks of eluting products were quantitated by UV absorbance (LTB4 and PGB2 at 275 nm; HHT and 5-HETE at 235 nm, respectively) and were corrected by PGB2 recovery. Linear regression was used to estimate IC50 values. […]

[2] = system: platelet activating factor (PAF) induced lethality; experiment: PAF induced lethality in mice, test compound administered orally; assay type: in vivo, ICR mice (male); details: Mus musculus, oral administration 45 min prior to PAF injection (12 μg/Kg i.v.), mortality 1 hr after PAF
Procedure: 2) In vivo system measuring effects of test compound administered orally against platelet activating factor (PAF) induced lethality in mice
The in vivo potency after oral administration of test compounds to ICR mice (male) was determined using the PAF lethality assay in a similar manner as that described in the following articles: J. M. Young, P. J. Maloney, S. N. Jubb, and J. S. Clark, Prostaglandins, 30, 545 (1985); M. Criscuoli and A. Subissi, Br. J. Pharmac., 90, 203 (1987); and H. Tsunoda, S. Abe, Y. Sakuma, S. Katayama and K. Katayama, Prostaglandins Leukotrienes and Essential Fatty Acids, 39, 291 (1990). PAF was dissolved at a concentration of 1.2 μg/ml in 0.05 mg/ml propranolol-saline containing 0.25% bovine serum albumin (BSA) and injected intravenously into mice at a dose of 12 μg/Kg. Mortality was determined 1 hr after PAF injection. To investigate the effect of 5-LO inhibitors, compounds were dissolved in 5% tween 80, 5% EtOH-saline and administered orally (0.1 ml/10 g) 45 min prior to PAF injection. Linear regression was used to estimate ED50 values.

Compound	IC50 [1] [nM]	ED50 [2] [mg/kg]
NC(=O)N(O)C1C=C(c2cccc(Oc3ccc(F)cc3)c2)CC1 (single isomer, unassigned; (+)) [Example 1, (+)-N-[3-[3-(4-Fluorophenoxy)phenyl]-2-cyclopenten-1-yl]-N-hydroxyurea]	~500	1 to 10
NC(=O)N(O)C1C=C(c2cccc(Oc3ccccc3)c2)CC1 (single isomer, unassigned; (+)) [Example 2, (+)-N-[3-(3-Phenoxyphenyl)-2-cyclopenten-1-yl]-N-hydroxyurea]	~500	1 to 10
NC(=O)N(O)C1C=C(c2cccc(Oc3ccc(Cl)cc3)c2)CC1 (single isomer, unassigned; (+)) [Example 3, (+)-N-[3-[3-(4-Chlorophenoxy)phenyl]-2-cyclopenten-1-yl]-N-hydroxyurea]	~500	1 to 10
